For this test, the target named is T1, NPEO-DH (short ethoxy chain nonylphenol dehydrogenase) (Ensifer sp. AS08, UniProt Q2HXX0).
T1 construct: gene pegdh; complete ORF (1659 bp, 553 residues) in pCold I, His-tag, expressed in E. coli BL21(DE3) pLysS, Ni-NTA purified; FAD flavoprotein
The test is described as follows: stopped-flow, absorbance at […] nm. Format: biochemical. Particulars: electron acceptor; PEG 1000-reduced enzyme, 0.01 mM DCIP, 0.1 M Tris-HCl pH 8.0, 30 °C.

T1 sequence (Q2HXX0 entry or part of it): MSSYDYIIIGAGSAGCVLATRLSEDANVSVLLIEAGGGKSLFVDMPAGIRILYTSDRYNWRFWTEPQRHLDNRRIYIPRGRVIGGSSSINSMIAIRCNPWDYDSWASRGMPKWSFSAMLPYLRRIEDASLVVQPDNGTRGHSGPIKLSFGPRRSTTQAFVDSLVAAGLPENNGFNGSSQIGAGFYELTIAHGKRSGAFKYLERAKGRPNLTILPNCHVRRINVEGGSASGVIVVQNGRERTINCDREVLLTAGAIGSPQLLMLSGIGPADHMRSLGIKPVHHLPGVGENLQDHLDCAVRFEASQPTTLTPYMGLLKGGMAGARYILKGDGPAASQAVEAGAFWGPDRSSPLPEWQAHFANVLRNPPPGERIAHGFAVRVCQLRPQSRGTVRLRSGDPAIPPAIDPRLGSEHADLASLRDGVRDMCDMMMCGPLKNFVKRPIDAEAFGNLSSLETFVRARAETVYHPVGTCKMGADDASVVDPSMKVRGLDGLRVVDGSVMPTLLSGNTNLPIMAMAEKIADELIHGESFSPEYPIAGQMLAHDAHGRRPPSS

Turning to `O=C1C(Cl)=CC(=Nc2ccc(O)cc2)C=C1Cl` [2,6-dichloroindophenol], the “stopped-flow, absorbance at 600 nm” value is “performed with the reduced form of enzyme (reduced flavin) and a minimal concentration of DCIP”.
